biological target: AMPK; assay: AMPK activation, enzyme-linked immunosorbent assay; assay type: biochemical; details: Table 2, AMPK activation, ELISA
Method: Compounds 1-50 of Table 1 were assayed for their ability to activate AMPK using an enzyme-linked immunosorbent assay.
Compounds 51-60 of Table 1 were assayed for their ability to activate AMPK using an enzyme-linked immunosorbent assay.
Compounds 61-131 of Table 1 were assayed for their ability to activate AMPK using an enzyme-linked immunosorbent assay.
Compounds 137-141 and 143-155 of Table 1 were assayed for their ability to activate AMPK using an enzyme-linked immunosorbent assay.
Compounds 156-160 of Table 1 were assayed for their ability to activate AMPK using an enzyme-linked immunosorbent assay.

Compared with `O=C(N[C@@H]1CCN(Cc2ccc(F)cc2)C1)c1ccc(OC2CCN(c3ccc(C(F)(F)F)cc3)CC2)cn1` [Compound 34, (R)-N-(1-(4-fluorobenzyl)pyrrolidin-3-yl)-5-(1-(4-(trifluoromethyl)phenyl)piperidin-4-yloxy)picolinamide], `N#Cc1ccc(CN2CC(NC(=O)c3ccc(OC4CCN(c5ccc(C(F)(F)F)cc5)CC4)cn3)C2)cc1` [Compound 41, N-(1-(4-cyanobenzyl)azetidin-3-yl)-5-(1-(4-(trifluoromethyl)phenyl)piperidin-4-yloxy)picolinamide] is lower in EC50: 0.5 to 1 µM for the first, 0.1 to 0.5 µM for the second. The second is the more potent here.

Compared with `N#Cc1ccc(CN2CCC(NC(=O)c3ccc(OC4CCN(c5ccc(C(F)(F)F)cc5)CC4)nc3)CC2)cc1` [Compound 35, N-(1-(4-cyanobenzyl)piperidin-4-yl)-6-(1-(4-(trifluoromethyl)phenyl)piperidin-4-yloxy)nicotinamide], `O=C(O)c1ccc(CN2CCC(NC(=O)c3ccc(OC4CCN(c5ccc(C(F)(F)F)cc5)CC4)nc3)CC2)cc1` [Compound 46, 4-((4-(6-(1-(4-(trifluoromethyl)phenyl)piperidin-4-yloxy)nicotinamido)piperidin-1-yl)methyl)benzoic acid] is higher in EC50: 0.1 to 0.5 µM for the first, 1 to 5 µM for the second. The first is the more potent here.

Compared with `O=C(NC1CCN(CCc2ccccc2)CC1)c1ccc(OC2CCN(c3ccc(C(F)(F)F)cc3)CC2)cn1` [Compound 36, N-(1-phenethylpiperidin-4-yl)-5-(1-(4-(trifluoromethyl)phenyl)piperidin-4-yloxy)picolinamide], `O=C(NC1CCN(Cc2ccccc2)CC1)c1ccc(OC2CCN(c3ccc(C(F)(F)F)cc3)CC2)cn1` [Compound 38, N-(1-benzylpiperidin-4-yl)-5-(1-(4-(trifluoromethyl)phenyl)piperidin-4-yloxy)picolinamide] is higher in EC50: 0.5 to 1 µM for the first, 1 to 5 µM for the second.

Compared with `O=C(NC1CCN(Cc2ccc3ccccc3c2)CC1)c1ccc(OC2CCN(c3ccc(C(F)(F)F)cc3)CC2)cn1` [Compound 37, N-(1-(naphthalen-2-ylmethyl)piperidin-4-yl)-5-(1-(4-(trifluoromethyl)phenyl)piperidin-4-yloxy)picolinamide], `CN(C)c1ccc(CN2CCC(NC(=O)c3ccc(OC4CCN(c5ccc(C(F)(F)F)cc5)CC4)cn3)CC2)cc1` [Compound 39, N-(1-(4-(dimethylamino)benzyl)piperidin-4-yl)-5-(1-(4-(trifluoromethyl)phenyl)piperidin-4-yloxy)picolinamide] is lower in EC50: 0.5 to 1 µM for the first, 0.1 to 0.5 µM for the second.

Compared with `O=C(NC1CCN(Cc2ccc(N3CCOCC3)cc2)CC1)c1ccc(OC2CCN(c3ccc(C(F)(F)F)cc3)CC2)cn1` [Compound 40, N-(1-(4-morpholinobenzyl)piperidin-4-yl)-5-(1-(4-(trifluoromethyl)phenyl)piperidin-4-yloxy)picolinamide], `O=C(NC1CCN(Cc2c[nH]cn2)CC1)c1ccc(OC2CCN(c3ccc(C(F)(F)F)cc3)CC2)cn1` [Compound 48, N-(1-((1H-imidazol-4-yl)methyl)piperidin-4-yl)-5-(1-(4-(trifluoromethyl)phenyl)piperidin-4-yloxy)picolinamide] is higher in EC50: less than 0.1 µM for the first, 1 to 5 µM for the second. The first is the more potent here.

`O=C(NC1CN(Cc2ccncc2)C1)c1ccc(OC2CCN(c3ccc(C(F)(F)F)cc3)CC2)cn1` [Compound 42, N-(1-(pyridin-4-ylmethyl)azetidin-3-yl)-5-(1-(4-(trifluoromethyl)phenyl)piperidin-4-yloxy)picolinamide] and `O=C(NCCCNCc1ccncc1)c1ccc(OC2CCN(c3ccc(C(F)(F)F)cc3)CC2)cn1` [Compound 50, N-(3-(pyridin-4-ylmethylamino)propyl)-5-(1-(4-(trifluoromethyl)phenyl)piperidin-4-yloxy)picolinamide] fall in the same range of EC50: 1 to 5 µM for the first, 1 to 5 µM for the second.

Compared with `O=C(NC1CCN(Cc2ccncc2)CC1)c1cccc(OC2CCN(c3ccc(C(F)(F)F)cc3)CC2)n1` [Compound 43, N-(1-(pyridin-4-ylmethyl)piperidin-4-yl)-6-(1-(4-(trifluoromethyl)phenyl)piperidin-4-yloxy)picolinamide], `COC(=O)c1ccc(CN2CCC(NC(=O)c3ccc(OC4CCN(c5ccc(C(F)(F)F)cc5)CC4)nc3)CC2)cc1` [Compound 45, methyl 4-((4-(6-(1-(4-(trifluoromethyl)phenyl)piperidin-4-yloxy)nicotinamido)piperidin-1-yl)methyl)benzoate] is higher in EC50: 1 to 5 µM for the first, greater than 10 µM for the second. The first is the more potent here.

With `CC(C)(C)OC(=O)NCCCNC(=O)c1ccc(OC2CCN(c3ccc(C(F)(F)F)cc3)CC2)cn1` [Compound 49, tert-butyl 3-(5-(1-(4-(trifluoromethyl)phenyl)piperidin-4-yloxy)picolinamido) propylcarbamate] the EC50 was less than 0.1 µM.

same assay, conditions: Table 3, AMPK activation, ELISA

`O=S(=O)(NC1CCN(Cc2ccncc2)CC1)c1ccc(OC2CCN(c3ccc(C(F)(F)F)cc3)CC2)nc1` [Compound 51, N-(1-(pyridin-4-ylmethyl)piperidin-4-yl)-6-(1-(4-(trifluoromethyl)phenyl)piperidin-4-yloxy)pyridine-3-sulfonamide] and `N#Cc1ccc(N2CCC(Oc3ccc(S(=O)(=O)NC4CCN(Cc5ccncc5)CC4)cn3)CC2)cc1` [Compound 52, N-(1-(pyridin-4-ylmethyl)piperidin-4-yl)-6-(1-(4-cyanophenyl)piperidin-4-yloxy)pyridine-3-sulfonamide] fall in the same range of EC50: 0.1 to 0.5 µM for the first, 0.1 to 0.5 µM for the second.

First: N#Cc1ccc(CN2CCC(Oc3ccc(S(=O)(=O)NC4CCN(Cc5ccncc5)CC4)cn3)CC2)cc1 [Compound 53, 6-(1-(4-cyanobenzyl)piperidin-4-yloxy)-N-(1-(pyridin-4-ylmethyl)piperidin-4-yl)pyridine-3-sulfonamide]
Second: N#Cc1ccc(CN2CCC(NS(=O)(=O)c3ccc(OC4CCN(c5ccc(C(F)(F)F)cc5)CC4)nc3)CC2)cc1 [Compound 56, N-(1-(4-cyanobenzyl)piperidin-4-yl)-6-(1-(4-(trifluoromethyl)phenyl)piperidin-4-yloxy)pyridine-3-sulfonamide]
The EC50 of the first is lower: 0.1 to 0.5 µM for the first, 5 to 50 µM for the second.

`CC(C)(C)OC(=O)N1CCC(NS(=O)(=O)c2ccc(OC3CCN(c4ccc(C(F)(F)F)cc4)CC3)nc2)CC1` [Compound 54, tert-butyl 4-(6-(1-(4-(trifluoromethyl)phenyl)piperidin-4-yloxy)pyridine-3-sulfonamido)piperidine-1-carboxylate] and `O=S(=O)(NC1CCNCC1)c1ccc(OC2CCN(c3ccc(C(F)(F)F)cc3)CC2)nc1` [Compound 55, N-(piperidin-4-yl)-6-(1-(4-(trifluoromethyl)phenyl)piperidin-4-yloxy)pyridine-3-sulfonamide] fall in the same range of EC50: 1 to 5 µM for the first, 1 to 5 µM for the second.

First: N#Cc1cccc(CN2CCC(NS(=O)(=O)c3ccc(OC4CCN(c5ccc(C(F)(F)F)cc5)CC4)nc3)CC2)c1 [Compound 57, N-(1-(3-cyanobenzyl)piperidin-4-yl)-6-(1-(4-(trifluoromethyl)phenyl)piperidin-4-yloxy)pyridine-3-sulfonamide]
Second: O=S(=O)(NC1CCN(Cc2cccc(C(F)(F)F)c2)CC1)c1ccc(OC2CCN(c3ccc(C(F)(F)F)cc3)CC2)nc1 [Compound 59, N-(1-(3-(trifluoromethyl)benzyl)piperidin-4-yl)-6-(1-(4-(trifluoromethyl)phenyl)piperidin-4-yloxy)pyridine-3-sulfonamide]
The EC50 of the first is higher: 0.5 to 1 µM for the first, 0.1 to 0.5 µM for the second.

With `O=S(=O)(NC1CCN(Cc2ccc(C(F)(F)F)cc2)CC1)c1ccc(OC2CCN(c3ccc(C(F)(F)F)cc3)CC2)nc1` [Compound 58, N-(1-(4-(trifluoromethyl)benzyl)piperidin-4-yl)-6-(1-(4-(trifluoromethyl)phenyl)piperidin-4-yloxy)pyridine-3-sulfonamide] the EC50 was less than 0.1 µM.

Reference: US9174964B2, “AMPK-activating piperidinyloxy-substituted 2,3-dihydro-1H-indene-1-amine compounds and pharmaceutical compositions including the same” (Rigel Pharmaceuticals, Inc., priority 2007, dated 2015)
